Results reported in ChEMBL document CHEMBL5543134, “Channeling Nicotinamide Phosphoribosyltransferase (NAMPT) to Address Life and Death” (J Med Chem, 2024).

Key:
[1] = biological target: Nicotinamide phosphoribosyltransferase (Homo sapiens, UniProt P43490); experiment: Inhibition of NAMPT (unknown origin) using NAM and PRPP as substrates incubated for 2 hrs in presence of ATP by fluorimetric plate reader assay
[2] = biological target: Nicotinamide phosphoribosyltransferase (Mus musculus, UniProt Q99KQ4); experiment: Inhibition of N-terminal His-tagged mouse NAMPT transformed in Escherichia coli Rosetta cells
A2780 = experiment: cells; settings: Homo sapiens, A2780, 72 h
HCT-116 [3] = experiment: cells; settings: Homo sapiens, HCT-116, 48 h
HCT-116 [4] = experiment: Antitumor activity against human HCT-116 cells assessed as decrease in intracellular NAD level at 30 uM measured after 12 to 24 hrs by absorbance based assay; assay type: functional; set-up: scale not given: the % may be the effect or the level left; settings: time 12-24 hrs
[5] = Cmax in Sprague-Dawley rat plasma at 60 mg/kg, ip measured up to 48 hrs by LC-MS/MS analysis; assay type: ADME, organism-based
[6] = Cmax in ICR mouse at 10 mg/kg, iv by LC-MS/MS analysis; assay type: ADME, organism-based; settings: in vivo

Sequence of Nicotinamide phosphoribosyltransferase (Mus musculus, UniProt Q99KQ4) (Q99KQ4 whole entry): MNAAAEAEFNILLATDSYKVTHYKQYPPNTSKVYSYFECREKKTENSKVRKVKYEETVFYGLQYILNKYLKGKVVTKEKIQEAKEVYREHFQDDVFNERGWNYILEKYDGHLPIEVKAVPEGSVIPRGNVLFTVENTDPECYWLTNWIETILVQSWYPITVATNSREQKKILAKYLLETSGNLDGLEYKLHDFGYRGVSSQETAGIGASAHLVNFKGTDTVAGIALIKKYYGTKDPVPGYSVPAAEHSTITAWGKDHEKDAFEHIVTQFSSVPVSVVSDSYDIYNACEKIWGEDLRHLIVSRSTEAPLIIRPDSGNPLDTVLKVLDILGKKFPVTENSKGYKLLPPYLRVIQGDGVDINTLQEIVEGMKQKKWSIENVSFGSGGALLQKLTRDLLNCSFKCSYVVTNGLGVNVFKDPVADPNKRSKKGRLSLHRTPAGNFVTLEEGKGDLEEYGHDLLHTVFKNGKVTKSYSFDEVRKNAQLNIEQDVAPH
Sequence of Nicotinamide phosphoribosyltransferase (Homo sapiens, UniProt P43490) (P43490 whole entry): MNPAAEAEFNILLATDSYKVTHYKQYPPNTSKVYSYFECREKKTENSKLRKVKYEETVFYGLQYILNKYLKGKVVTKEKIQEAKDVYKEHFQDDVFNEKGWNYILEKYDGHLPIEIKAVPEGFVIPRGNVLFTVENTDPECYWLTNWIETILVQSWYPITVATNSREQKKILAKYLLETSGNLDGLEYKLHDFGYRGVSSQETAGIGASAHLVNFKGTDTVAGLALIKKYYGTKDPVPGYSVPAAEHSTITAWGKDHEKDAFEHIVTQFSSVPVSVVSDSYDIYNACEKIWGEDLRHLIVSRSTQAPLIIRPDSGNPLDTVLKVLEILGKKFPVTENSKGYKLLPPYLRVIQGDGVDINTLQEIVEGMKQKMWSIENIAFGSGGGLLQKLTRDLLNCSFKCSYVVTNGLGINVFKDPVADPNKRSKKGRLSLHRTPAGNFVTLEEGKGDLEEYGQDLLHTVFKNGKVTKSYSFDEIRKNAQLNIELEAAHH

O=C(NCc1ccncc1)Nc1ccc(S(=O)(=O)N2C[C@H]3CC[C@@H](C2)O3)cc1
IC50 [1]: 279 nM

CCN(CC)C(=O)c1noc2cc(NC(=O)NCc3cnco3)ccc12
IC50 [2]: 1490 nM

CCOC(=O)c1ccc(NC(=S)NCc2ccncc2)cc1
IC50 (A2780): 1000 nM

C#CCN(Cc1cc2c(=O)n(C)c(CN3CCN(CCN)CC3)nc2cc1Cl)c1ccc(C(=O)NCc2cccnc2)cc1
IC50 (HCT-116 [3]): 0.68 nM

CCN(CC)S(=O)(=O)c1ccc(NC(=O)NCc2ccncc2)cc1
IC50 (A2780): 364 nM

Nc1cc(F)ccc1NC(=O)c1ccc(CNC(=O)/C=C/c2cccnc2)cc1 [TUCIDINOSTAT]
Activity (HCT-116 [4]): 50%

Cn1nccc1-c1nc2ccc(NC(=O)NCc3ccncc3)cn2n1
IC50 (A2780): 160 nM

O=S(=O)(c1ccc(NC(=S)NCc2ccncc2)cc1)N1CCCCC1
IC50 (A2780): > 10 nM

O=C(/C=C/c1cccnc1)NCCCCC1CCN(C(=O)c2ccccc2)CC1 [DAPORINAD]
Cmax [5]: 6.7 µM
Cmax [6]: 14 µM

CCOC(=O)c1ccc(NC(=O)NCc2ccncc2)cc1
IC50 (A2780): 320 nM
